Assay results published in US8183351B2, “Avermectin derivatives” (Bayer Cropscience AG, priority 2006, dated 2012).

Tests used:
Format in all cases: in vivo
[1] = tested on: eggs, larvae and pupae of the whitefly (Bemisia tabaci); experiment: Bemisia tabaci test, normally sensitive strains (BEMITA); conditions: Example E; 0.8 ppm active compound; sprayed cotton plants
Protocol: Bemisia tabaci Test, Normally Sensitive Strains, (BEMITA)
• Solvent: 7 parts by weight of dimethylformamide • Emulsifier: 10 parts by weight of alkylaryl polyglycol ether
(§1) To produce a suitable preparation of active compound, 1 part by weight of active compound is mixed with the stated amounts of solvents and emulsifier, and the concentrate is diluted with emulsifier-containing water to the desired concentration.
Cotton plants (Gossypium hirsutum) infected by eggs, larvae and pupae of the whitefly (Bemisia tabaci) are treated by being sprayed with the preparation of active compound at the desired concentration.
After the desired period of time, the kill in % is determined 100% means that all animals have been killed; 0% means that none of the animals have been killed.
(§2) In this test, for example, the following compounds of the preparation examples show good activity: see table

adult Musca domestica = experiment: Musca domestica test (MUSCDO); conditions: Example C, treated sponge
Protocol: Musca domestica Test (MUSCDO)
(§3) • Solvent: Dimethyl sulphoxide
To produce a suitable preparation of active compound, 1 part by weight of active compound is mixed with the stated amount of water, and the concentrate is diluted with water to the desired concentration.
Containers containing a sponge treated with the preparation of active compound of the desired concentration are populated with adult Musca domestica.
After the desired period of time, the kill in % is determined. 100% means that all flies have been killed; 0% means that none of the flies have been killed.
as §2

[2] = tested on: larvae of the mustard beetle (Phaedon cochleariae); experiment: Phaedon test (PHAECO spray treatment); conditions: Example D; 4 ppm active compound; sprayed Chinese cabbage discs
Protocol: Phaedon Test (PHAECO Spray Treatment)
• Solvents: 78 parts by weight of acetone • 1.5 parts by weight of dimethylformamide • Emulsifier: 0.5 part by weight of alkylaryl polyglyycol ether
After the desired period of time, the effect in % is determined. 100% means that all beetle larvae have been killed; 0% means that none of the beetle larvae have been killed.

Lucilia cuprina larvae = experiment: Lucilia cuprina test (LUCICU); conditions: treated horsemeat
Protocol: Lucilia cuprina Test (LUCICU)
Description for Examples A and B
as §3
To produce a suitable preparation of active compound, 1 part by weight of active compound is mixed with the stated amount of water and the concentrate is diluted with water to the desired concentration.
Containers containing horsemeat treated with the active compound preparation of the desired concentration are populated with Lucilia cuprina larvae.
After the desired period of time, the kill in % is determined. 100% means that all larvae have been killed; 0% means that none of the larvae have been killed.
as §2

[3] = tested on: greenhouse red spider mite (Tetranychus urticae); experiment: Tetranychus test, OP-resistant (TETRUR spray treatment); conditions: Example F; 0.00128 ppm active compound; sprayed bean leaf discs
Protocol: Tetranychus Test, OP-resistant (TETRUR Spray Treatment)
• Solvents: 78 parts by weight of acetone • 1.5 parts by weight of dimethylformamide • Emulsifier: 0.5 part by weight of alkylaryl polyglycol ether
as §1
Discs of bean leaves (Phaseolus vulgaris) heavily infested by all stages of the greenhouse red spider mite (Tetranychus urticae) are sprayed with a preparation of active compound of the desired concentration.
After the desired period of time, the effect in % is determined 100% means that all spider mites have been killed; 0% means that none of the spider mites have been killed.
as §2

[4] = Example A, 0.8 ppm active compound

Compound | Kill rate in % after 7 days [1] | Kill rate in % after 2 days (adult Musca domestica; 0.8 ppm active compound) | Kill rate in % after 2 days (adult Musca domestica; 100 ppm active compound) | Kill rate in % after 7 days [2] | Kill rate in % after 2 days (Lucilia cuprina larvae; [4]) | Kill rate in % after 2 days (Lucilia cuprina larvae; Example B, 0.16 ppm active compound) | Kill rate in % after 5 days [3]
4′-O-acetyl-4′-O-de(2,6-dideoxy-3-O-methyl-α-L-arabino-hexopyrano-syl)-5-O-demethyl-avermectin A1a [reference compound] | 0% | 0% | 60% | 0% | 30% | 0% | 0%
CC[C@H](C)[C@H]1OC2(C=C[C@@H]1C)C[C@@H]1C[C@@H](C/C=C(\C)[C@@H](OC3CC(OC)C(OC(=O)C4(C)COCOC4)C(C)O3)[C@@H](C)/C=C/C=C3\CO[C@@H]4[C@H](O)C(C)=CC(C(=O)O1)[C@]34O)O2 (stereo partly drawn) [Example 14] | 80% | – | – | – | 100% | – | –
